Measured values taken from patent US9688736B2, “Compound for treatment of severe hypoglycemia” (Eli Lilly and Company, priority 2013, dated 2017).
Read-outs that look alike come from different tables or passages of the source. Square brackets hold non-standard residues; d marks the D form. Peptide text beside a SMILES is read from it. Aib = CC(C)(N)C(=O)O

Columns and labels:
[1] = assay type: physicochemical
Experimental: The compound of SEQ ID NO: 2 is dissolved in 20 mM Tris-HCl/H2O, pH 8 to a 1 mg/mL concentration (peptide content), and filtered through a 0.22 micron filter (Millex, SLGV004SL). Solution is transferred to three vials: one for 4° C.; one for 30° C. and one for 40° C. […]. Samples are visually assessed at different time points for turbidity and phase separation.

[2] = target: T1, mouse glucagon receptor (mGR) (Mus musculus, UniProt Q61606); experiment: Mouse glucagon receptor binding assay (SPA); details: 293HEK membranes, 125I-labelled glucagon
T1 construct: expressed in transfected cells; host or cells: 293HEK cells in suspension culture (crude plasma membranes)

[3] = target: T2, human glucagon receptor (hGR) (Homo sapiens, UniProt P47871); experiment: Human glucagon receptor stimulated cAMP functional assay; assay type: cell-based; details: hGR-HEK293 cells, relative EC50, HTRF cAMP
T2 construct: expressed in transfected cells; host or cells: 293HEK (crude plasma membranes)
Experimental: Cells are stimulated with glucagon, buffer controls, or Test samples, and the cAMP generated within the cell is quantitated using the CisBio cAMP Dynamic 2 HTRF Assay Kit (62AM4PEC). Briefly, cAMP levels within the cell are detected by binding to the cAMP-d2 capture antibody in the presence of cell lysis buffer. A second detection antibody provided in the kit, anti-cAMP Cryptate, is added to create a competitive sandwich assay. When the detection antibody complex formed there is an increase in the signal that is measured on a Perkin-Elmer Envision® instrument.
The hGR-HEK293 cells are harvested from sub-confluent tissue culture dishes with Enzyme-Free Cell Dissociation Solution (Specialty Media 5-004-B). The cells are pelleted at 100× g at room temperature for 5 minutes then washed twice with phosphate buffered saline (PBS). […] The cells are then pelleted at 100× g at room temperature for 5 minutes. […] Test samples are prepared as 2 mM stocks in DMSO and frozen at −20° C. until needed. […] The reaction is stopped by addition of 20 μL of the cAMP-d2-capture antibody (CisBio) diluted into the CisBio lysis buffer then gently mixed in [sequence] shaker. […] The lysed cell and antibody mixtures are read after 1 hour at room temperature using the Perkin-Elmer Envision®. […]

male C57BL6 mice = experiment: Effects of compound on blood glucose levels in C57/B16 male mice; assay type: in vivo; details: for Blood glucose levels after dosing: mean ± SEM, n=4
Experimental: To determine the effects of the compound of SEQ ID NO: 2 on blood glucose levels, the compound is administered to C57/B 16 mice. Three month old male C57BL6 mice (Harlan Laboratories) are used Animals are individually housed in a temperature-controlled (24° C.) facility with a 12 hour light/dark cycle, and have free access to food and water. After 1 week acclimation to the facility, mice are randomized to treatment groups (n=4/group). Test compound is formulated in Buffer 2 (see Physical stability test using Thioflavin T binding assay). On the morning of test, food is removed at 08:00 AM. Two hours after food is removed, the test compound is given subcutaneously at 0, 1, 3 or 10 μg/kg doses. Blood glucose is measured at time 0, 15, 30, 60 and 120 minutes after test compound administration with an ACCU-CHECK® (Roche Diagnostics) glucometer. […] Results are expressed as mean ±standard error mean (SEM) of 4 mice per group.
Blood glucose levels at 10 μg/kg of compound of SEQ ID NO: 2 is taken as the maximum value.

[4] = target: T2, human glucagon receptor (hGR); experiment: Human glucagon receptor binding assay (SPA); details: 293HEK membranes, 125I-labelled glucagon
Experimental: Plates are sealed, mixed end over end, and read with a MicroBeta® scintillation counter after 12 hours of settling time at room temperature.

human GIP-R = target: T3, human GIP-R (Homo sapiens, UniProt P48546); experiment: Glucose-dependent insulinotropic peptide receptor binding assay (SPA); details: CHO-S membranes, radioiodinated GIP
T3 construct: expressed in transfected cells; host or cells: CHO-S suspension cells (crude plasma membranes)
T3 sequence (P48546 22-466): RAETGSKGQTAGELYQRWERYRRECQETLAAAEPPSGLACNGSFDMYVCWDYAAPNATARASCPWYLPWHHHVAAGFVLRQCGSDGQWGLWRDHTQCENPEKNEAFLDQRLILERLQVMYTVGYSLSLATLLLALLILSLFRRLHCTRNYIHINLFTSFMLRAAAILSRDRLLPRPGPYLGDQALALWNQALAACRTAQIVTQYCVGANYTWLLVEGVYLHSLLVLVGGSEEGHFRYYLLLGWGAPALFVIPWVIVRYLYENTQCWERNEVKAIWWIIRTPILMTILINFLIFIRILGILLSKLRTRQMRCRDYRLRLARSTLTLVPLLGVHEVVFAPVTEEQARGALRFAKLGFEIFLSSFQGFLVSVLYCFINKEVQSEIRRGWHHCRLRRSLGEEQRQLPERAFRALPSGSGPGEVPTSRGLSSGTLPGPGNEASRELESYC

[5] = target: T4, human glucagon-like peptide 1 receptor (hGLP-1R) (Homo sapiens, UniProt P43220); experiment: Glucagon-like-peptide 1 receptor binding assay (SPA); details: 293HEK membranes, 125I-labelled GLP-1 amide
T4 construct: expressed in transfected cells; host or cells: 293HEK suspension cells (crude plasma membranes)

[6] = Physical stability test using Thioflavin T binding assay (fibrillation); assay type: physicochemical; details: 25° C.; for Thioflavin T fluorescence: 1 mg/mL, stirred 300 rpm
Experimental: Fibrillation is a common problem when glucagon is formulated in aqueous solution. To assess the level of fibrillation of the compound of the present invention, a Thioflavin T binding assay is performed.
All samples are mechanically stressed at 25° C. in a magnetic stir plate set at 300 rpm. […] Raw data is collected with Softmax Pro 5.4.1 (Molecular Devices) and imported to Excel.

[7] = pH 8, 120 hours, mechanical stress

T2 sequence (P47871 26-477): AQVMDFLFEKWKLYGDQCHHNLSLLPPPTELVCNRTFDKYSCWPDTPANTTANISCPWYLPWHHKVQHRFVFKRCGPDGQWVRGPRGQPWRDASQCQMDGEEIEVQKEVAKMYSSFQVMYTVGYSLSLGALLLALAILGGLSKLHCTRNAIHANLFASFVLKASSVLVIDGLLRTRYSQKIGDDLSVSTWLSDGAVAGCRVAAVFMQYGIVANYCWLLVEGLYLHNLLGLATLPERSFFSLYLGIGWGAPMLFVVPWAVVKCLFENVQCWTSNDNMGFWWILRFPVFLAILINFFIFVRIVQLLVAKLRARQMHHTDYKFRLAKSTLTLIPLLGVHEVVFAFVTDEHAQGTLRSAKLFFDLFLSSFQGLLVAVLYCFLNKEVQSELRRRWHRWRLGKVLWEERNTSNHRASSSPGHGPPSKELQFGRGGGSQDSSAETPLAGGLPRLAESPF
T4 sequence (P43220 24-463): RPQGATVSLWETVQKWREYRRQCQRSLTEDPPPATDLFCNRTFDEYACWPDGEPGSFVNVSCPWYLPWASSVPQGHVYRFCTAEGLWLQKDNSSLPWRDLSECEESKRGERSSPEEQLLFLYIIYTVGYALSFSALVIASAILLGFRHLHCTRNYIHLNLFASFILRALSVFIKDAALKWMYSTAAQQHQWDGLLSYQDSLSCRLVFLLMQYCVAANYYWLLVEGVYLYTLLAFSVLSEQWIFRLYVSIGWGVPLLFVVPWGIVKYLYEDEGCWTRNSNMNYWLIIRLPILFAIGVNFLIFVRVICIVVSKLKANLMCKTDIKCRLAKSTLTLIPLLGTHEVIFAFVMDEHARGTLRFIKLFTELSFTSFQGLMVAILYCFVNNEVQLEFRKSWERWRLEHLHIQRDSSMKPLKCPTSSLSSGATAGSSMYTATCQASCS
T1 sequence (Q61606 27-485): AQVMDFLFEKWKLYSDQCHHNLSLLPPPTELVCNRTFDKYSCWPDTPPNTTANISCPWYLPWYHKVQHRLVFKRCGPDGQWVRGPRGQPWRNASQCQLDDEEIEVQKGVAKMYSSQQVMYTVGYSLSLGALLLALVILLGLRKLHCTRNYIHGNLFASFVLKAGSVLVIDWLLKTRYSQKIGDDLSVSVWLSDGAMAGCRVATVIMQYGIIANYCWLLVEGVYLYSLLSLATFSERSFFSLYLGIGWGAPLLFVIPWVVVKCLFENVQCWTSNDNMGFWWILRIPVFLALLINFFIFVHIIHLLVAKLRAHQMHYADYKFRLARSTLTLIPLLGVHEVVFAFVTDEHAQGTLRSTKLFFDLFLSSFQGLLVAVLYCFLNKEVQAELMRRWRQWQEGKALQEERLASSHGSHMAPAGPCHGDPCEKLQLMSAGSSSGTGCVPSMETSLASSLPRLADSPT

## CC(C)C[C@H](NC(=O)[C@H](Cc1c[nH]c2ccccc12)NC(=O)[C@H](C)NC(=O)[C@@H](NC(=O)[C@H](Cc1ccccc1)NC(=O)[C@H](CCC(=O)O)NC(=O)[C@H](C)NC(=O)[C@H](C)NC(=O)[C@H](CCCCN)NC(=O)[C@H](CCCCN)NC(=O)C(C)(C)NC(=O)[C@H](CC(=O)O)NC(=O)[C@H](CC(C)C)NC(=O)[C@H](Cc1ccc(O)cc1)NC(=O)[C@H](CCCCN)NC(=O)[C@H](CO)NC(=O)[C@@H](NC(=O)[C@H](CC(=O)O)NC(=O)[C@H](CO)NC(=O)[C@@H](NC(=O)[C@H](Cc1ccccc1)NC(=O)[C@@H](NC(=O)CNC(=O)[C@H](Cc1c[nH]cn1)NC(=O)[C@H](CO)NC(=O)[C@@H](N)Cc1ccc(O)cc1)[C@@H](C)O)[C@@H](C)O)C(C)C)C(C)C)C(=O)N[C@@H](CC(C)C)C(=O)N[C@@H](CCC(=O)O)C(=O)N[C@@H](CCC(=O)O)C(=O)O [SEQ ID NO: 2] (H-YSHGTFTSDVSKYLD[Aib]KKAAEFVAWLLEE-OH; N-terminus assumed)
[1]; RP-HPLC, pH 8, 4° C., 4 wk
  4° C. % Main Peak 4 wk: 95.94%
[1]; RP-HPLC, pH 8, 30° C., 4 wk
  30° C. % Main Peak 4 wk: 93.73%
[1]; RP-HPLC, pH 8, 40° C., 4 wk
  40° C. % Main Peak 4 wk: 89.54%
[1]; RP-HPLC, pH 8, day 0
  % Main Peak Day 0: 96.26%
[1]; pH 8
  Solubility by visual assessment and RP-HPLC: maintains good solubility
[1]; pH 8, 4-wk 30° C. vs 4° C.
  RP-HPLC main peak change: < 2.5%
[1]; pH 8, 4-wk 40° C. vs 4° C.
  RP-HPLC main peak change: < 7%
[1]; pH 8, total peak area, 4 wk
  30° C. vs 4° C. Recovery 4 wk: 101%
  40° C. vs 4° C. Recovery 4 wk: 99%
[2]
  Ki: 8.63 ± 0.71 nM
[3]
  EC50: 0.0658 ± 0.0167 nM
Male C57BL6 mice; 1 μg/kg subcutaneously, 0 minutes
  Blood glucose levels after dosing: 132.0 ± 4.1 mg/dL
Male C57BL6 mice; 1 μg/kg subcutaneously, 15 minutes
  Blood glucose levels after dosing: 203.0 ± 15.8 mg/dL
Male C57BL6 mice; 1 μg/kg subcutaneously, 30 minutes
  Blood glucose levels after dosing: 220.4 ± 21.4 mg/dL
Male C57BL6 mice; 1 μg/kg subcutaneously, 60 minutes
  Blood glucose levels after dosing: 171.6 ± 10.2 mg/dL
Male C57BL6 mice; 1 μg/kg subcutaneously, 120 minutes
  Blood glucose levels after dosing: 168.9 ± 3.7 mg/dL
Male C57BL6 mice; 3 μg/kg subcutaneously, 0 minutes
  Blood glucose levels after dosing: 147.8 ± 2.6 mg/dL
Male C57BL6 mice; 3 μg/kg subcutaneously, 15 minutes
  Blood glucose levels after dosing: 246.4 ± 13.1 mg/dL
Male C57BL6 mice; 3 μg/kg subcutaneously, 30 minutes
  Blood glucose levels after dosing: 274.9 ± 16.3 mg/dL
Male C57BL6 mice; 3 μg/kg subcutaneously, 60 minutes
  Blood glucose levels after dosing: 201.1 ± 13.2 mg/dL
Male C57BL6 mice; 3 μg/kg subcutaneously, 120 minutes
  Blood glucose levels after dosing: 172.8 ± 8.9 mg/dL
Male C57BL6 mice; 10 μg/kg subcutaneously, 0 minutes
  Blood glucose levels after dosing: 146.0 ± 8.2 mg/dL
Male C57BL6 mice; 10 μg/kg subcutaneously, 15 minutes
  Blood glucose levels after dosing: 257.3 ± 7.7 mg/dL
Male C57BL6 mice; 10 μg/kg subcutaneously, 30 minutes
  Blood glucose levels after dosing: 294.0 ± 13.3 mg/dL
Male C57BL6 mice; 10 μg/kg subcutaneously, 60 minutes
  Blood glucose levels after dosing: 222.2 ± 13.9 mg/dL
Male C57BL6 mice; 10 μg/kg subcutaneously, 120 minutes
  Blood glucose levels after dosing: 147.0 ± 6.7 mg/dL
Male C57BL6 mice; calculated on the 30 minute glucose measurements, 10 μg/kg taken as maximum, subcutaneous
  ED50 (blood glucose increase): 3.34 µg/kg
[4]
  Ki: 3.2 ± 0.76 nM
Human GIP-R
  Ki: > 2240 nM
[5]
  Ki: > 3380 nM
[6]; [7]
  Fibrillation as measured by the Thioflavin T binding assay: did not demonstrate significant fibrillation
  Physical stability by visual assessment and Thioflavin T binding: maintains physical stability
[6]; Buffer 1 (20 mM Tris-HCl pH 8.0), t = 0 h
  Thioflavin T fluorescence: 193.9 flurescence units
[6]; Buffer 1 (20 mM Tris-HCl pH 8.0), t = 40 h
  Thioflavin T fluorescence: 201.6 flurescence units
[6]; Buffer 1 (20 mM Tris-HCl pH 8.0), t = 120 h
  Thioflavin T fluorescence: 226.1 flurescence units
[6]; Buffer 2 (20 mM Tris-HCl, 150 nM NaCl, pH 8.0), t = 0 h
  Thioflavin T fluorescence: 182.2 flurescence units
[6]; Buffer 2 (20 mM Tris-HCl, 150 nM NaCl, pH 8.0), t = 40 h
  Thioflavin T fluorescence: 210.1 flurescence units
[6]; Buffer 2 (20 mM Tris-HCl, 150 nM NaCl, pH 8.0), t = 120 h
  Thioflavin T fluorescence: 213.6 flurescence units
[6]; Buffer 3 (20 mM Tris-HCl, 300 mM sucrose, pH 8.0), t = 0 h
  Thioflavin T fluorescence: 263.3 flurescence units
[6]; Buffer 3 (20 mM Tris-HCl, 300 mM sucrose, pH 8.0), t = 40 h
  Thioflavin T fluorescence: 297.0 flurescence units
[6]; Buffer 3 (20 mM Tris-HCl, 300 mM sucrose, pH 8.0), t = 120 h
  Thioflavin T fluorescence: 310.9 flurescence units
[6]; Buffer 4 (20 mM Tris-HCl, 300 mM sorbitol, pH 8.0), t = 0 h
  Thioflavin T fluorescence: 260.9 flurescence units
[6]; Buffer 4 (20 mM Tris-HCl, 300 mM sorbitol, pH 8.0), t = 40 h
  Thioflavin T fluorescence: 285.1 flurescence units
[6]; Buffer 4 (20 mM Tris-HCl, 300 mM sorbitol, pH 8.0), t = 120 h
  Thioflavin T fluorescence: 311.2 flurescence units
[6]; Buffer 5 (20 mM Tris-HCl, 0.02% Tween 80, pH 8.0), t = 0 h
  Thioflavin T fluorescence: 251.7 flurescence units
[6]; Buffer 5 (20 mM Tris-HCl, 0.02% Tween 80, pH 8.0), t = 40 h
  Thioflavin T fluorescence: 281.7 flurescence units
[6]; Buffer 5 (20 mM Tris-HCl, 0.02% Tween 80, pH 8.0), t = 120 h
  Thioflavin T fluorescence: 306.8 flurescence units
